In article PMC7139703, “Thiopurine Derivative-Induced Fpg/Nei DNA Glycosylase Inhibition: Structural, Dynamic and Functional Insights” (International Journal of Molecular Sciences, 2020):
Like-named read-outs stand apart in the source and are kept apart here.

Experiments:
LlFpg = target: T1, LlFpg (Lactococcus lactis subsp. cremoris, UniProt P42371); experiment: Enzyme kinetics of 8-oxoG excision by LlFpg in the presence of 2TX (double-reciprocal, Dixon, Cornish-Bowden plots); format: biochemical
T1 construct: made in house; host or cells: E. coli BH540 (fpg defective)
T1 sequence (P42371 2-273): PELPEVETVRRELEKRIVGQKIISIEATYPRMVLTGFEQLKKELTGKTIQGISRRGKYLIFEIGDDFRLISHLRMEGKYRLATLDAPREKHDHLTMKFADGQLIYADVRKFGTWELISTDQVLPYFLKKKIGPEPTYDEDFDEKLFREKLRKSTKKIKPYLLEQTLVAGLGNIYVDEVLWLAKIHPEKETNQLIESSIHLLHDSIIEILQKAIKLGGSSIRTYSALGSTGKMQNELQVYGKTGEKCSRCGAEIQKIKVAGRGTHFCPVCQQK
Excerpt: Kinetic experiments with LlFpg in the presence of 2TX partially support this last hypothesis (Figure S3). Although LlFpg was inhibited by 2TX, as was its E. coli homolog (EcFpg), the raw kinetic data from all the experiments appeared to be very complicated and difficult to interpret. […] In this case, no inhibitory constant (Ki) can be determined. This mechanism (also supported by the inhibition suppression by TCEP, Figure S2) is likely superimposed on other inhibitory mechanisms, a factor that makes it difficult to analyze kinetic data. To clarify, we separately analyzed kinetic data obtained for low and high 2TX concentrations (Figure S3). As expected, we observed a linear dependence of the reciprocal velocity (1/v) as a function of the reciprocal substrate concentrations (1/S) with and without the inhibitor. […] These values compare well with those determined previously for the excision of FapyG and 8-oxoG by EcFpg. […] This value is consistent with an interaction of 2TX in the active site of the enzyme. This inhibitory mechanism has not been previously described for the EcFpg enzyme. […] This mode of inhibition is in agreement with the possibility that 2TX can bind outside the active site on the free and bound enzyme. […]

LlFpg/DNA complex C1 = target: T2, LlFpg/DNA complex C1 (Lactococcus lactis subsp. cremoris, UniProt P42371); experiment: EMSA, Fpg DNA binding to 14-mer [THF:C] duplex, complex C1 (lesion recognition complex, Fpg/DNA 1/1); conditions: pre-incubation of Fpg 20 min at 4 °C; micromolar to millimolar inhibitor
T2 construct: made in house; host or cells: E. coli BH540 (fpg defective)
T2 sequence (P42371 2-273, one chain of several): as the sequence (P42371 2-273) above

mvNei1 = target: T3, mvNei1 (Acanthamoeba polyphaga mimivirus, UniProt Q5UQ00); experiment: EMSA, mvNei1 DNA binding to THF-containing DNA duplex; conditions: Figure 4
T3 construct: 6His (C); made in house; host or cells: E. coli Rosetta2 (DE3)
T3 sequence (Q5UQ00 whole entry): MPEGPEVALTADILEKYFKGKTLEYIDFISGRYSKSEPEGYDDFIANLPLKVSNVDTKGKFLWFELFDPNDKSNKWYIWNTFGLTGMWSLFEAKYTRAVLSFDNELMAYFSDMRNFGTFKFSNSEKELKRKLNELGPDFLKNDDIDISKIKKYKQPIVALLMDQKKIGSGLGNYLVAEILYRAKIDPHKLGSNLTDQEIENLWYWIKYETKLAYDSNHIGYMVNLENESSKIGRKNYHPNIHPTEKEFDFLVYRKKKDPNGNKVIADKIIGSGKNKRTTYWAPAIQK
Method: Figure 4 Comparative analysis of the effect of 2TX and TXn on Fpg/Nei DNA glycosylases. Enzyme activities were measured as described in the Figure 1 legend using 0.1 nM of a 5′-[^32P]-24-mer DNA duplex containing either an 8-oxoG opposite C for LlFpg or a […] (DHU) opposite G for hNeil1 and mvNei1. The DNA probe was incubated with the indicated protein concentration and 0.2 mM TXn compounds in the presence or absence of 1 mM dithiothreitol (DTT) and TCEP (a representative experiment is illustrated by the upper histograms). […]
The DNA binding activity was measured using EMSA [37]. […] After electrophoresis, the gels were dried and exposed overnight for autoradiography using a Typhoon imager and quantified with ImageQuant software. To evaluate the inhibitor effect of 2TX/TXn on the DNA binding activity of each Fpg/Nei enzyme, we first determined the experimental conditions required to bind 50% of the DNA probes without an inhibitor in the presence of 8% DMSO (limiting enzyme concentration). […] This effect was determined by the addition of the thio-compound in the pre-equilibrium mixture of the enzyme and DNA probe (30 min) and incubated for an additional 30 min at 4 °C. For the best inhibitors of Fpg, a dose-response curve was established from at least three independent experiments and the IC50 was determined (IC50^B, Table 1).

hNeil1 = hNeil1 (Homo sapiens, UniProt Q96FI4); experiment: EMSA, hNeil1 DNA binding to THF-containing DNA duplex; conditions: Figure 4
Chain of hNeil1 (Q96FI4 2-290 limits assumed): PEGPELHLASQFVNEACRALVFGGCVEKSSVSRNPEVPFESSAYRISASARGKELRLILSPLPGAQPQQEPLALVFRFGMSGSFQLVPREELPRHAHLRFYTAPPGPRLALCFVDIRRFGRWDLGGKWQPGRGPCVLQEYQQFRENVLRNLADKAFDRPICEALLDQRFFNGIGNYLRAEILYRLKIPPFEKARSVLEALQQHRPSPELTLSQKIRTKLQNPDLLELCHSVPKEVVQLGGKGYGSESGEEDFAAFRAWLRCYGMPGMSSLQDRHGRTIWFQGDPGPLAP

| Compound | Ki (LlFpg; high 2TX concentrations, uncompetitive, read-out: apparent Ki (Kiu)) [µM] | Ki (LlFpg; low 2TX concentrations, partially competitive, read-out: apparent Ki (Kic)) [µM] | Fpg ability to bind DNA after pre-incubation with inhibitor (LlFpg/DNA complex C1) | effect on mvNei1 DNA binding activity (mvNei1) | effect on hNeil1 DNA binding activity (hNeil1) |
| --- | --- | --- | --- | --- | --- |
| O=c1[nH]c(=S)[nH]c2nc[nH]c12 [Compound 2TX, 2-thioxanthine, reference compound] | 24.9 ± 6.56 | 2.19 ± 0.56 | completely abolished | – | – |
| O=c1[nH]c(=S)[nH]c2[nH]c(=S)[nH]c12 [TX19] | – | – | – | apparent inhibitory effects | apparent inhibitory effects |
